In US20240142676A1, “COMPOUND, COMPOSITION, CURED PRODUCT, OPTICALLY ANISOTROPIC BODY, OPTICAL ELEMENT, AND LIGHT GUIDE ELEMENT” (FUJIFILM Corporation, priority 2021, published 2024):

Tests used:
Assay type in all cases: physicochemical
[1] = Evaluation of liquid crystallinity (hot stage, polarization microscope); set-up: key: A case of having liquid crystallinity was evaluated as A; a case of having no liquid crystallinity was evaluated as B; conditions: heated on a hot stage, observed with a polarization microscope
Protocol: The respective compounds (the compounds A-1 to A-6 and the compounds B-1 and B-2) were heated on a hot stage and observed with a polarization microscope, and the phase transition temperature was measured to evaluate the presence or absence of the liquid crystallinity. A case of having liquid crystallinity was evaluated as A, and a case of having no liquid crystallinity was evaluated as B. The results are shown in Table 1.
Since B-1 has melting points of 200° C. or higher and undergo a polymerization reaction during heating, liquid crystallinity could not be evaluated.

[2] = Light resistance evaluation of optically anisotropic layer (Super Xenon Weather Meter); conditions: rate of change in Re (550 nm) of layer with 25 parts compound/75 parts L-1; 5 million lx, 50 hours, 63° C., 50% RH, oxygen-blocking
Protocol: As shown below, the light resistance of the optically anisotropic layer produced using the composition containing each of the compounds A-1 to A-6 and the compounds B-1 and B-2 was evaluated.
A coating liquid having the following composition was prepared and applied by spin-coating, onto a rubbing-treated glass attached with an alignment film. Each composition was irradiated with ultraviolet rays of 300 mJ/cm^2 through a filter that cuts light having a wavelength of 350 nm or less on a hot plate which had been heated to a temperature at which a nematic phase is shown, whereby an optically anisotropic layer was produced.
The polymerizable liquid crystal compound L-1 is a mixture obtained by mixing at a ratio of the following L-1-1/L-1-2/L-1-3=84/14/2 (in terms of mass ratio).
The produced optically anisotropic layers for a light resistance test were irradiated with light using a Super Xenon Weather Meter SX75 manufactured by Suga Test Instruments Co., Ltd. Using KU-1000100 manufactured by King Seisakusho Co., Ltd. as a UV cut filter, a light resistance test was carried out by irradiation with 5 million lx of light for 50 hours under an oxygen-blocking condition. The temperature of the specimen to be tested (the temperature inside the test device) was set to 63° C. The relative humidity in the test device was 50% RH.
The Re of the optically anisotropic layer before and after the light resistance test was measured, the light resistance in a case where the rate of change in Re described below was less than 10% was evaluated as A, and the light resistance in a case where the rate of change in Re was 10% or more was evaluated as B. The smaller the rate of change in Re, the more excellent the light resistance.
Rate of change in Re (%)=[100×{|(Re after test)−(Re before test)|}/(Re before test)]
Re was measured with Axoscan manufactured by Axometrics Inc. at a wavelength of 550 nm, and the measurement temperature was set to room temperature.

[3] = Measurement of Δn (refractive index anisotropy), wedge-shaped liquid crystal cell; conditions: wavelength 550 nm, 30° C. or lower limit temperature of nematic phase+0° C. to 10° C.; extrapolated from 1/2 mixture with L-1-1 where needed
Protocol: The Δn of each of the compounds (the compounds A-1 to A-6 and the compounds B-1 and B-2), which are the compounds to be measured, was measured by a method using a wedge-shaped liquid crystal cell described on page 202 in the Liquid crystal handbook (edited by the liquid crystal handbook editorial board, published by Maruzen Co., Ltd., 2000). Δn was defined as a measured value at a wavelength of 550 nm at 30° C. or the lower limit temperature of the nematic phase+0° C. to 10° C. In a case of a compound which is liable to crystallize or a compound having no liquid crystallinity, evaluation was carried out using a mixture thereof with the other liquid crystal compound, and Δn was estimated from the extrapolated value of the measured value thereof.
The following L-1-1 was used as the other liquid crystal compound. As the above mixture, a mixture obtained by mixing at a ratio of the compound to be measured/the L-1-1=1/2 (in terms of mass ratio) was used.
A case where Δn was 0.35 or more was evaluated as A, a case where Δn was 0.30 or more and less than 0.35 was evaluated as B, and a case where Δn was less than 0.30 was evaluated as C.

[4] = Evaluation of solubility in methyl ethyl ketone; conditions: precipitation concentration in methyl ethyl ketone at room temperature (25° C.)
Protocol: The solubility of each of the compounds (the compounds A-1 to A-6 and the compounds B-1 and B-2) in methyl ethyl ketone was evaluated.

Row | SMILES | Liquid crystallinity [1] | Light resistance [2] | Δn [3] | Solubility [4]
1 | C=CC(=O)OCCc1ccc(C#Cc2ccc(-c3ccc(C#Cc4ccc(CCOC(=O)C=C)cc4)cc3C)c(C)c2)cc1 [Compound A-1] | A | A (the light resistance in a case where the rate of change in Re described below was less than 10% was evaluated as A) | B (a case where Δn was 0.30 or more and less than 0.35 was evaluated as B) | A (the solubility in a case where the precipitation concentration was 10% by mass or more was evaluated as A)
2 | C=CC(=O)OCCCCOc1ccc(C#Cc2ccc(-c3ccc(C#Cc4ccc(OCCCCOC(=O)C=C)cc4)cc3C)c(C)c2)cc1 [Compound A-3] | A | A (the light resistance in a case where the rate of change in Re described below was less than 10% was evaluated as A) | B (a case where Δn was 0.30 or more and less than 0.35 was evaluated as B) | A (the solubility in a case where the precipitation concentration was 10% by mass or more was evaluated as A)
3 | C=CC(=O)OCCSc1ccc(C#Cc2ccc(-c3ccc(C#Cc4ccc(SCCOC(=O)C=C)cc4)cc3C)c(C)c2)cc1 [Compound A-2] | A | A (the light resistance in a case where the rate of change in Re described below was less than 10% was evaluated as A) | A (A case where Δn was 0.35 or more was evaluated as A) | A (the solubility in a case where the precipitation concentration was 10% by mass or more was evaluated as A)
4 | C=CC(=O)OCCc1ccc(C#Cc2cnc(-c3ncc(C#Cc4ccc(CCOC(=O)C=C)cc4)cc3C)c(C)c2)cc1 [Compound A-6] | A | A (the light resistance in a case where the rate of change in Re described below was less than 10% was evaluated as A) | B (a case where Δn was 0.30 or more and less than 0.35 was evaluated as B) | A (the solubility in a case where the precipitation concentration was 10% by mass or more was evaluated as A)
